Target: USP19 (Homo sapiens (Human), UniProt O94966)
Assay: USP19 activity assay (fluorescence polarisation, Ubiquitin-Lys-TAMRA substrate)
Type: biochemical
Conditions: full-length USP19 2.5 nM, 30 min pre-incubation, Ub substrate 500 nM; average of at least two duplicate experiments
Procedure: Unless otherwise stated, all other reagents were purchased from Sigma. Enzymatic reactions were conducted in black flat bottom polystyrene 384-well plates (Nunc) and 30 μL total volume. […] Inhibitors were stored as 10 mM DMSO stocks in an inert environment (low humidity, dark, low oxygen, room temperature) using the Storage Pod System and serial dilutions were prepared in buffer just prior to the assay (from 200 μM to 2 pM, 8-18 data point curve). Following incubation at RT for 30 min, the enzymatic reactions were initiated by dispensing the Ub substrate (500 nM, 10 μL). FP was measured every 15 min over a period of 90 min (within the linear range of the assay) using a Synergy 4 plate reader (BioTek) exciting at 530 nm and measuring the amount of parallel and perpendicular light at 575 nm. The FP signal was subsequently normalised to the no compound control.

Chain of USP19 (O94966 whole entry): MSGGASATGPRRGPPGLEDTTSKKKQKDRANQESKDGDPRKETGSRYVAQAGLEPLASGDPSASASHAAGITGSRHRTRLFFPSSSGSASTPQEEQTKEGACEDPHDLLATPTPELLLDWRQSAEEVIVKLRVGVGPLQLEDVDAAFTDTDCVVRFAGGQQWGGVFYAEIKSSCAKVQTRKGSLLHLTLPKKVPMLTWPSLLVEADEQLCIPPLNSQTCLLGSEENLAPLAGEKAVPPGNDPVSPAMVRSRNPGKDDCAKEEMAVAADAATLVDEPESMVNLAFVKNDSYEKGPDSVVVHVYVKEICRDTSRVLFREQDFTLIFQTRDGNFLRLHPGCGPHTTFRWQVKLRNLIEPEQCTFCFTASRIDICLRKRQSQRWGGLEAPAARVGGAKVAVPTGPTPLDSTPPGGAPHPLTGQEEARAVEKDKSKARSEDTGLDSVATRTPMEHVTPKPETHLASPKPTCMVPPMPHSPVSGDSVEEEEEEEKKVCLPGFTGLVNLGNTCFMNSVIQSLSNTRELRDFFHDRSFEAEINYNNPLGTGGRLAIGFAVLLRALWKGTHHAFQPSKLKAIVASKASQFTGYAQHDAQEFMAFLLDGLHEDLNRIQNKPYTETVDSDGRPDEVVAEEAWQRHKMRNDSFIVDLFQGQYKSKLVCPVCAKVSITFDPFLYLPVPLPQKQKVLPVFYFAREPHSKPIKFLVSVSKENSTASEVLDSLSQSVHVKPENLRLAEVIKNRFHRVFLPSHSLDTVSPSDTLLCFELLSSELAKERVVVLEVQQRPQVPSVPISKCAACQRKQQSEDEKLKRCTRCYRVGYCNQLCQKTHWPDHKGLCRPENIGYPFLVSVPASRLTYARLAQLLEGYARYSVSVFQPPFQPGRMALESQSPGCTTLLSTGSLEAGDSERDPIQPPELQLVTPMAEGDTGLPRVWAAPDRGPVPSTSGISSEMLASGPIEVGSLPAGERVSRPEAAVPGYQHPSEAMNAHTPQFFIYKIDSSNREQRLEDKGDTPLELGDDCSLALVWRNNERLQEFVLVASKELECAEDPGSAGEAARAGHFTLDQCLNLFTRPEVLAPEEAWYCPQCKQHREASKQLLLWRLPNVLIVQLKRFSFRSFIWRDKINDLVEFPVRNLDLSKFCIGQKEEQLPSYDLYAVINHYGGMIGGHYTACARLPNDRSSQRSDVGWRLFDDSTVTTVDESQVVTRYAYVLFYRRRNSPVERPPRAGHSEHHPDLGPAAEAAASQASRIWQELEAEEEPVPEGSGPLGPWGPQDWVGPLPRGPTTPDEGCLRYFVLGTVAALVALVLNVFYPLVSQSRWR

SMILES	IC50 [µM]
C[C@H](CC1CCCCC1)C(=O)N1CC[C@@](O)(Cn2cc(C(=O)N3CCCC3)c(-c3ccccc3)cc2=O)C(C)(C)C1 [Example 123, 1-(((S)-1-((R)-3-Cyclohexyl-2-methylpropanoyl)-4-hydroxy-3,3-dimethylpiperidin-4-yl)methyl)-4-phenyl-5-(pyrrolidine-1-carbonyl)pyridin-2(1H)-one]	< 0.5
CC(C)N(C)C(=O)c1cn(C[C@]2(O)CCN(C(=O)[C@H](C)CC3CCCCC3)CC2(C)C)c(=O)cc1-c1ccccc1 [Example 120, 1-(((S)-1-((R)-3-Cyclohexyl-2-methylpropanoyl)-4-hydroxy-3,3-dimethylpiperidin-4-yl)methyl)-N-isopropyl-N-methyl-6-oxo-4-phenyl-1,6-dihydropyridine-3-carboxamide]	< 0.5
CC(n1cnc(-c2ccccc2)cc1=O)C1(O)CCN(C(=O)[C@H](C)CC2CCCCC2)CC1 (stereo partly drawn) [Example 108, 3-(1-(1-((R)-3-Cyclohexyl-2-methylpropanoyl)-4-hydroxypiperidin-4-yl)ethyl)-6-phenylpyrimidin-4(3H)-one]	0.5 to 5
C[C@H](CC1CCCCC1)C(=O)N1CCC(O)(Cn2cnc(-c3ccccc3)cc2=O)C(C)(C)C1 (mixture of isomers) [Example 50, 3-(((R)-1-((R)-3-Cyclohexyl-2-methylpropanoyl)-4-hydroxy-3,3-dimethylpiperidin-4-yl)methyl)-6-phenylpyrimidin-4(3H)-one and 3-(((S)-1-((R)-3-Cyclohexyl-2-methylpropanoyl)-4-hydroxy-3,3-dimethylpiperidin-4-yl)methyl)-6-phenylpyrimidin-4(3H)-one]	< 0.5
CC(C)C(=O)N1CCC(O)(Cn2cc(C(=O)N(C)C)c(-c3ccccc3)cc2=O)C2(CCCC2)C1 (centres unmarked) [Example 147, 1-((10-Hydroxy-7-isobutyryl-7-azaspiro[4.5]decan-10-yl)methyl)-N,N-dimethyl-6-oxo-4-phenyl-1,6-dihydropyridine-3-carboxamide]	50 to 250

The remaining lines, values ahead:

IC50 [µM]	SMILES
5 to 50	Cc1ccc(-c2cc(=O)n(CC3(O)CCN(C(=O)C[C@@H](C)c4ccccc4)CC3)cc2C(=O)N(C)C(C)C)cc1 [Example 96, (R)-1-((4-Hydroxy-1-(3-phenylbutanoyl)piperidin-4-yl)methyl)-N-isopropyl-N-methyl-6-oxo-4-(p-tolyl)-1,6-dihydropyridine-3-carboxamide]
5 to 50	C[C@H](CC(=O)N1CCC(O)(Cn2cc(-c3ccc(CN)cc3)c(-c3ccccc3)cc2=O)CC1)c1ccccc1 [Example 86, (R)-5-(4-(Aminomethyl)phenyl)-1-((4-hydroxy-1-(3-phenylbutanoyl)piperidin-4-yl)methyl)-4-phenylpyridin-2(1H)-one]
50 to 250	CCC(C)(C)C(=O)N1CCC(O)(Cn2cc(C(=O)N(C)C(C)C)c(-c3ccccc3)cc2=O)CC1 [Example 84, 1-((1-(2,2-Dimethylbutanoyl)-4-hydroxypiperidin-4-yl)methyl)-N-isopropyl-N-methyl-6-oxo-4-phenyl-1,6-dihydropyridine-3-carboxamide]
5 to 50	C[C@H](CC(=O)N1CCC(O)(Cn2cc(-c3cccnc3)c(-c3ccccc3)cc2=O)CC1)c1ccccc1 [Example 99, (R)-1-((4-Hydroxy-1-(3-phenylbutanoyl)piperidin-4-yl)methyl)-4-phenyl-[3,3′-bipyridin]-6(1H)-one]
50 to 250	CC(C)CNc1cc(=O)n(CC2(O)CCN(C(=O)C[C@@H](C)c3ccccc3)CC2)cn1 [Example 35, (R)-3-((4-Hydroxy-1-(3-phenylbutanoyl)piperidin-4-yl)methyl)-6-(isobutylamino)pyrimidin-4(3H)-one]
50 to 250	CCOC(=O)c1cn(CC2(O)CCN(C(=O)C[C@@H](C)c3ccccc3)CC2)c(=O)cc1-c1ccccc1 [Example 13, (R)-Ethyl 1-((4-hydroxy-1-(3-phenylbutanoyl)piperidin-4-yl)methyl)-6-oxo-4-phenyl-1,6-dihydropyridine-3-carboxylate]
